Results: patent US8148391B2 (Cephalon, Inc., priority 2006, dated 2012)
Read-outs that look alike come from different tables or passages of the source. One block for each compound: values may come before it.

Tests used:
[1] = target: T1, baculovirus-expressed ALK (Homo sapiens, UniProt Q9UM73); test: ALK Kinase Assay (ELISA-type, time-resolved fluorescence); format: biochemical
T1 construct: host or cells: baculovirus expression system
Outline: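 Plates coated with phospholipase C-γ substrate (10 μg/mL in TBS); reaction started with 30 ng/ml ALK and run 15 min at 37° C. Phosphorylated substrate detected with Eu-N1-labeled PT66 antibody. IC50 from sigmoidal variable-slope fit of percent inhibition vs log concentration.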

[2] = target: T2, c-Met (cytoplasmic domain) (Homo sapiens, UniProt P08581); test: c-Met Kinase Assay (same methods as for ALK, with modifications); format: biochemical
T2 construct: 10 ng/mL c-Met (cytoplasmic domain, Invitrogen Corporation #PV3143); purchased Invitrogen Corporation PV3143
T2 sequence (P08581 956-1390 limits assumed): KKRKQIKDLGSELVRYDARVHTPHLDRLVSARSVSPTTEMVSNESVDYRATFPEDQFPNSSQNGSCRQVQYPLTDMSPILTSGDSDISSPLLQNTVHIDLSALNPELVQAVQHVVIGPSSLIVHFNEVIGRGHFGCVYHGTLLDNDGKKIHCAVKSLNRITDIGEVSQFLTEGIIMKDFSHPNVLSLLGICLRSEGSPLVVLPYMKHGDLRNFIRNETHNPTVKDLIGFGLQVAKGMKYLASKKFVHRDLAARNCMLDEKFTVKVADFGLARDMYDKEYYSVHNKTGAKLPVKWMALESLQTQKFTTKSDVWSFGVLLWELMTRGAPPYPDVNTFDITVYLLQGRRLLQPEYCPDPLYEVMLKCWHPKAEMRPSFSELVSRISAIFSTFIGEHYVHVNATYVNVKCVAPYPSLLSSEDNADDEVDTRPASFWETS
Outline: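 Europium-labeled PT66 antibody (Eu-N1) detects substrate phosphorylation on wells coated with phospholipase C-γ at 10 μg/mL. The kinase, the cytoplasmic domain of c-Met at 10 ng/mL, starts the reaction, which proceeds 15 minutes at 37° C.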

[3] = 1 μM ATP (Km level), 30 ng/ml ALK, 37° C., 15 minutes, read-out: ALK Activity (ALK kinase inhibition, IC50 class)
[4] = 1 μM ATP (Km level), 10 ng/mL c-Met, read-out: cMet Activity (c-Met kinase inhibition, IC50 class)
[5] = ALK kinase inhibition, 1 μM ATP (Km level), read-out: ALK Activity
[6] = c-Met kinase inhibition, 1 μM ATP (Km level), read-out: cMet Activity
[7] = ALK kinase inhibition, 1 μM ATP, read-out: ALK Activity
[8] = c-Met kinase inhibition, 1 μM ATP, read-out: cMet Activity

T1 sequence (Q9UM73 19-1620): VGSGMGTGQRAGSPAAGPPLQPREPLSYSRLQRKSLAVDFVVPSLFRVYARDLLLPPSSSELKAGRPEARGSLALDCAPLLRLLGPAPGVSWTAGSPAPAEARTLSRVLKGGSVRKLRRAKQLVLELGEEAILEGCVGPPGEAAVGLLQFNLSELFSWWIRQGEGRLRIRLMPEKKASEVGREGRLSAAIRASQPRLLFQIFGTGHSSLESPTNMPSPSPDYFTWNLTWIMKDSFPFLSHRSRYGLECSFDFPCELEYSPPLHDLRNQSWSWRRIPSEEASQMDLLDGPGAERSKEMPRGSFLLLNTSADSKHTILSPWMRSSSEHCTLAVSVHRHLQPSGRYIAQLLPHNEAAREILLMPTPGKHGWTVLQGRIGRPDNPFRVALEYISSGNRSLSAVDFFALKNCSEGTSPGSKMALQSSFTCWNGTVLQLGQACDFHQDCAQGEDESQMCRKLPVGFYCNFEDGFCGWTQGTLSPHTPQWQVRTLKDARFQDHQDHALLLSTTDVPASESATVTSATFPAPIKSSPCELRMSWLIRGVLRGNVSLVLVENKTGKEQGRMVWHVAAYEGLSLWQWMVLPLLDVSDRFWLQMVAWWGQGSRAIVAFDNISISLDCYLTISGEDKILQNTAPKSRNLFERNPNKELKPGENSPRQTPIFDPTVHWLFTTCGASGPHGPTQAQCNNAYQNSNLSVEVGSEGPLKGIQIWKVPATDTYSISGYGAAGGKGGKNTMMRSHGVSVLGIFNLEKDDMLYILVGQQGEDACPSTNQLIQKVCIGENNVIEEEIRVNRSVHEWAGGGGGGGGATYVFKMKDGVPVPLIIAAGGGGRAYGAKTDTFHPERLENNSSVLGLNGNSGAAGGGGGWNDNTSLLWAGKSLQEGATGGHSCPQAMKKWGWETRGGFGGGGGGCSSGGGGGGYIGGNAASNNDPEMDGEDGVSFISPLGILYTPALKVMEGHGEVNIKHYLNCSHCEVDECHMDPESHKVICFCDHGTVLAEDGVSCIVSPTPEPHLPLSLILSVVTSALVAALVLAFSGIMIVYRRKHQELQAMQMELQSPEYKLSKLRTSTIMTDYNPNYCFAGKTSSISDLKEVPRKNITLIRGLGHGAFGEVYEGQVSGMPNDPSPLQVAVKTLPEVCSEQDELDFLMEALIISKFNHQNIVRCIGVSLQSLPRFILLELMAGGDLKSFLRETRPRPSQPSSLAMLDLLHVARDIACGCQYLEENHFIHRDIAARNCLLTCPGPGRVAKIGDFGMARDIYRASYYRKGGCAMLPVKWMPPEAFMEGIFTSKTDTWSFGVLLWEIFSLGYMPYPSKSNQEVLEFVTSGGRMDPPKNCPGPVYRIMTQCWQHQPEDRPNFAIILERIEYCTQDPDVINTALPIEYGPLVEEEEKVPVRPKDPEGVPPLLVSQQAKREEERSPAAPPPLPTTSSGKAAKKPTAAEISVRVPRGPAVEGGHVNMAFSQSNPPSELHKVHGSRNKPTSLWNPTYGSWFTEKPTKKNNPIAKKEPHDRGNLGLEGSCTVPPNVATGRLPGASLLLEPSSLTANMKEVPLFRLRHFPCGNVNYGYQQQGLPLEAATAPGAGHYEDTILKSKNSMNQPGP

SMILES: COc1cc2c(cc1Nc1ncc(Cl)c(Nc3ccccc3S(=O)(=O)N3CCCC3)n1)CCN(CCS(C)(=O)=O)CC2 [Example 1178, 5-Chloro-N*2*-[3-(2-methanesulfonyl-ethyl)-8-methoxy-2,3,4,5-tetrahydro-1H-benzo[d]azepin-7-yl]-N*4*-[2-(pyrrolidine-1-sulfonyl)-phenyl]-pyrimidine-2,4-diamine]
IC50 [1, 3]: < 100 nM
IC50 [2, 4]: 100 to 1000 nM

SMILES: CNC(=O)c1ccccc1Nc1nc(Nc2ccc3c(c2)C(=O)NCCN3C)ncc1Cl [Example 428, 2-[5-Chloro-2-(1-methyl-5-oxo-2,3,4,5-tetrahydro-1H-benzo[e][1,4]diazepin-7-ylamino)-pyrimidin-4-ylamino]-N-methylbenzamide]
IC50 [1, 5]: < 100 nM
IC50 [2, 6]: < 100 nM

SMILES: COCCN1CCc2ccc(Nc3ncc(Cl)c(Nc4ccccc4-c4ncccc4C)n3)cc2CC1 [Example 972, 5-Chloro-N*2*-[3-(2-methoxy-ethyl)-2,3,4,5-tetrahydro-1H-benzo[d]azepin-7-yl]-N*4*-[2-(3-methyl-pyridin-2-yl)-phenyl]-pyrimidine-2,4-diamine]
IC50 ([1]; 1 μM ATP (Km level), read-out: ALK Activity (ALK Kinase Inhibition, IC50)): < 100 nM
IC50 ([2]; 1 μM ATP (Km level), read-out: cMet Activity (c-Met Kinase Inhibition, IC50)): 100 to 1000 nM

SMILES: CN1C(=O)CCCc2cc(Nc3ncc(Cl)c(Nc4c(F)cccc4C(=O)NCC#N)n3)ccc21 [Example 1045, 2-[5-Chloro-2-(1-methyl-2-oxo-2,3,4,5-tetrahydro-1H-benzo[b]azepin-7-ylamino)-pyrimidin-4-ylamino]-N-cyanomethyl-3-fluoro-benzamide]
IC50 [1, 3]: < 100 nM
IC50 [2, 4]: < 100 nM

SMILES: CNC(=O)c1ccccc1Nc1nc(Nc2cc3c(cc2OC)CCC(NCCOC)CC3)ncc1Cl (stereo not shown) [Example 1086, 2-{5-Chloro-2-[3-methoxy-7-(2-methoxy-ethylamino)-6,7,8,9-tetrahydro-5H-benzocyclohepten-2-ylamino]-pyrimidin-4-ylamino}-N-methyl-benzamide]
IC50 [1, 3]: < 100 nM
IC50 [2, 4]: 100 to 1000 nM

SMILES: CCN1CC2OC(C1)c1cc(Nc3ncc(Cl)c(Nc4ccccc4S(=O)(=O)NC)n3)ccc12 (stereo not shown) [Example 66, 2-[5-Chloro-2-(10-ethyl-12-oxa-10-aza-tricyclo[6.3.1.0*2,7*]dodeca-2(7),3,5-trien-4-ylamino)-pyrimidin-4-ylamino]-N-methyl-benzenesulfonamide]
IC50 [1, 5]: < 100 nM
IC50 [2, 6]: 1000 to 10000 nM

SMILES: CCN1CCN(CC)c2cc(Nc3ncc(Cl)c(Nc4ccccc4NS(C)(=O)=O)n3)ccc2C1=O [Example 423, N-{2-[5-Chloro-2-(1,4-diethyl-5-oxo-2,3,4,5-tetrahydro-1H-benzo[e][1,4]diazepin-8-ylamino)-pyrimidin-4-ylamino]-phenyl}-methanesulfonamide]
IC50 [1, 5]: < 100 nM
IC50 [2, 6]: 100 to 1000 nM

SMILES: CC1(C)CCC(=O)Nc2ccc(Nc3ncc(Cl)c(Nc4ccccc4-n4cccn4)n3)cc21 [Example 398, 7-[5-Chloro-4-(2-pyrazol-1-yl-phenylamino)-pyrimidin-2-ylamino]-5,5-dimethyl-1,3,4,5-tetrahydro-benzo[b]azepin-2-one]
IC50 [1, 5]: < 100 nM
IC50 [2, 6]: > 10000 nM

SMILES: CNC(=O)c1ccc(Nc2nc(Nc3cc4c(cc3OC)CCN(CC(=O)N(C)C)CC4)ncc2Cl)c(OC)c1 [Example 1176, 4-[5-Chloro-2-(3-dimethylcarbamoylmethyl-8-methoxy-2,3,4,5-tetrahydro-1H-benzo[d]azepin-7-ylamino)-pyrimidin-4-ylamino]-3-methoxy-N-methyl-benzamide]
IC50 [1, 3]: < 100 nM
IC50 [2, 4]: > 10000 nM

SMILES: COc1cc2c(cc1Nc1ncc(Cl)c(Nc3ccccc3C(=O)OC(C)C)n1)CCN(CCCN(C)C)C(=O)C2 [Example 1111, 2-{5-Chloro-2-[3-(3-dimethylamino-propyl)-8-methoxy-2-oxo-2,3,4,5-tetrahydro-1H-benzo[d]azepin-7-ylamino]-pyrimidin-4-ylamino}-benzoic acid isopropyl ester]
IC50 [1, 3]: < 100 nM
IC50 [2, 4]: > 10000 nM

SMILES: COCCN1CCc2cc(Nc3ncc(Cl)c(Nc4cc(C(N)=O)ccc4OC)n3)c(OC)cc2CC1 [Example 1140, 3-{5-Chloro-2-[8-methoxy-3-(2-methoxy-ethyl)-2,3,4,5-tetrahydro-1H-benzo[d]azepin-7-ylamino]-pyrimidin-4-ylamino}-4-methoxy-benzamide]
IC50 [1, 3]: 1000 to 10000 nM
IC50 [2, 4]: > 10000 nM

SMILES: CNC(=O)c1ccccc1Nc1nc(Nc2cc3c(cc2OC)CCN(CC(=O)N(C)C)CC3)ncc1Br [Example 376, 2-[5-Bromo-2-(3-dimethylcarbamoylmethyl-8-methoxy-2,3,4,5-tetrahydro-1H-benzo[d]azepin-7-ylamino)-pyrimidin-4-ylamino]-N-methyl-benzamide]
IC50 [1, 5]: < 100 nM
IC50 [2, 6]: 1000 to 10000 nM

Other lines, results leading:

IC50 [1, 3]: < 100 nM
IC50 [2, 4]: 1000 to 10000 nM
SMILES: COc1cc(N2CCOCC2)ccc1Nc1nc(Nc2ccc3c(c2)CCN(CC(=O)N(C)C)CC3)ncc1Cl [Example 1368, 2-{7-[5-Chloro-4-(2-methoxy-4-morpholin-4-yl-phenylamino)-pyrimidin-2-ylamino]-1,2,4,5-tetrahydro-benzo[d]azepin-3-yl}-N,N-dimethyl-acetamide]

IC50 [1, 7]: < 100 nM
IC50 [2, 8]: 1000 to 10000 nM
SMILES: CC1(C)CCC(=O)Nc2cc(Nc3ncc(Cl)c(Nc4ccc(N5CCOCC5)cc4OCCC#N)n3)ccc21 [Example 1690, 3-{2-[5-Chloro-2-(5,5-dimethyl-2-oxo-2,3,4,5-tetrahydro-1H-benzo[b]azepin-8-ylamino)-pyrimidin-4-ylamino]-5-morpholin-4-yl-phenoxy}-propionitrile]

IC50 [1, 7]: < 100 nM
IC50 [2, 8]: > 10000 nM
SMILES: COc1cc2c(cc1Nc1ncc(Cl)c(N[C@@H]3CCCC[C@H]3NS(C)(=O)=O)n1)CCOC(=O)N2C [Example 1503, N-{(1R,2R)-2-[5-Chloro-2-(3-methoxy-5-methyl-6-oxo-5,6,8,9-tetrahydro-7-oxa-5-aza-benzocyclohepten-2-ylamino)-pyrimidin-4-ylamino]-cyclohexyl}-methanesulfonamide]

IC50 [1, 7]: < 100 nM
IC50 [2, 8]: > 10000 nM
SMILES: CCN1CC(=O)Nc2cc(Nc3ncc(Cl)c(Nc4ccc(OC)cc4-n4cccn4)n3)c(OC)cc2C1 [Example 1662, 8-[5-Chloro-4-(4-methoxy-2-pyrazol-1-yl-phenylamino)-pyrimidin-2-ylamino]-4-ethyl-7-methoxy-1,3,4,5-tetrahydro-benzo[e][1,4]diazepin-2-one]

IC50 [1, 3]: 100 to 1000 nM
IC50 [2, 4]: < 100 nM
SMILES: CNC(=O)CN1CCc2ccc(Nc3ncc(Cl)c(Nc4c(Cl)cccc4C(=O)NC)n3)cc2CC1 [Example 1373, 3-Chloro-2-[5-chloro-2-(3-methylcarbamoylmethyl-2,3,4,5-tetrahydro-1H-benzo[d]azepin-7-ylamino)-pyrimidin-4-ylamino]-N-methyl-benzamide]

IC50 [1, 3]: 100 to 1000 nM
IC50 [2, 4]: 1000 to 10000 nM
SMILES: CCN1C(=O)CCCc2ccc(Nc3ncc(Cl)c(Nc4ccc(OCC#N)cc4)n3)cc21 [Example 1226, {4-[5-Chloro-2-(1-ethyl-2-oxo-2,3,4,5-tetrahydro-1H-1-benzazepin-8-ylamino)-pyrimidin-4-ylamino]-phenoxy}-acetonitrile]

IC50 [1, 7]: < 100 nM
IC50 [2, 8]: 1000 to 10000 nM
SMILES: COc1cc2c(cc1Nc1ncc(Cl)c(Nc3ccccc3S(=O)(=O)N3CC[C@H](O)C3)n1)CCN(C[C@@H](C)O)CC2 [Example 1556, (S)-1-(2-{5-Chloro-2-[3-((R)-2-hydroxy-propyl)-8-methoxy-2,3,4,5-tetrahydro-1H-3-benzazepin-7-ylamino]-pyrimidin-4-ylamino}-benzenesulfonyl)-pyrrolidin-3-ol]

IC50 [1, 5]: 1000 to 10000 nM
IC50 [2, 6]: < 100 nM
SMILES: CCOC(=O)N1CC(=O)N(CC)c2cc(Nc3ncc(Cl)c(Nc4c(F)cccc4C(=O)NC)n3)ccc2C1 [Example 1875, 8-[5-Chloro-4-(2-fluoro-6-methylcarbamoyl-phenylamino)-pyrimidin-2-ylamino]-1-ethyl-2-oxo-1,2,3,5-tetrahydro-benzo[e][1,4]diazepine-4-carboxylic acid ethyl ester]

IC50 [1, 7]: < 100 nM
IC50 [2, 8]: < 100 nM
SMILES: CNC(=O)c1c(Cl)sc(Cl)c1Nc1nc(Nc2ccc3c(c2)CN(C)C(=O)CC3)ncc1Cl [Example 1807, 2,5-Dichloro-4-[5-chloro-2-(2-methyl-3-oxo-2,3,4,5-tetrahydro-1H-benzo[c]azepin-8-ylamino)-pyrimidin-4-ylamino]-thiophene-3-carboxylic acid methylamide]

IC50 [1, 7]: 100 to 1000 nM
IC50 [2, 8]: < 100 nM
SMILES: C#CCNC(=O)c1cccc(F)c1Nc1nc(Nc2ccc3c(c2)N(CC)C(=O)C(NC(=O)COC)CC3)ncc1Cl (stereo not shown) [Example 1499, 2-{5-Chloro-2-[1-ethyl-3-(2-methoxy-acetylamino)-2-oxo-2,3,4,5-tetrahydro-1H-benzo[b]azepin-8-ylamino]-pyrimidin-4-ylamino}-3-fluoro-N-prop-2-ynyl-benzamide]

IC50 [1, 3]: < 100 nM
IC50 [2, 4]: < 100 nM
SMILES: CNC(=O)c1cc(-c2cnn(C)c2)cc(F)c1Nc1nc(Nc2ccc3c(c2)CCN(CCOC)CC3)ncc1Cl [Example 1423, 2-{5-Chloro-2-[3-(2-methoxy-ethyl)-2,3,4,5-tetrahydro-1H-benzo[d]azepin-7-ylamino]-pyrimidin-4-ylamino}-3-fluoro-N-methyl-5-(1-methyl-1H-pyrazol-4-yl)-benzamide]
